Source: patent US10023593B2, “ALK kinase inhibitor, and preparation method and uses thereof” (BEIJING PEARL BIOTECHNOLOGY LIMITED LIABILITY COMPANY, priority 2014, dated 2018)

System: NCI-H2228 cell line
Assay: CellTiter-Glo cell proliferation inhibition on NCI-H2228 cell line
Format: cell-based
Details: Homo sapiens, NCI-H2228, 96 h, NCI-H2228 cells, 5000 cells/well, 4 days drug treatment
Procedure: 3. Cell Proliferation Inhibitory Activities of the Compounds of the Present Invention on NCI-H2228 Cell Line
? experimental method ? CellTiter-Glo® Luminescent Cell Viability Assay kit from Promega company was used to detect cell proliferation inhibitory activities of the compounds on NCI-H2228 cell line.
? instrument ? Envision 2104 plate reader from PerKinElmer company; Vi-Cell XR cell counter from Beckman Counter company; MCO-18AIC CO2 incubator from SANYO company.
? experiment material ? CellTiter-Glo® Luminescent Cell Viability Assay Kit (Promega company, catalog No. G7573); NCI-H2228 cell line (ATCC, catalog No. CRL-5935); RPMI-1640 medium (HyClone company, catalog No. SH30809.01B); fetal bovine serum (FBS) (Gibco company, catalog No. 10099-141); trypsin (Trypsin) (Gibco company, catalog No. 25200-072); PBS (HyClone company, catalog No. SH30256.01B); 96 wells cell culture plate (Corning company, catalog No. 3610); DMSO (AMRESCO company, catalog No. 0231); 96 wells plates (for diluting compounds) (CITOTEST company, catalog No. Ref36020096D);
? experimental condition ? NCI-H2228 cells in exponential growth phase were collected and treated with trypsin (Trypsin), and viable cells were counted by Vi-Cell XR cell counter. Cell suspension was adjusted to 62500 cells/ml with culture medium (RPMI-1640+10% FBS). 80 μl cell suspension was added into each well of 96 wells cell culture plate so that the final cell number of NCI-H2228 cells was 5000 cells/well. The cells were cultivated in an incubator with an atmosphere of 37° C., 5% CO2 and 95% humidity for 2 hours and then each well was added with 20 μl compounds in RPMI-1640 medium solution (the final concentration of DMSO was 0.5%). 4 days after drug treatment, each well was added with 50 μl CellTiter-Glo solution which was previously thawed and equilibrated to room temperature, and mixed for 2 minutes with microplate shaker. After placing at room temperature for 10 minutes, luminescence value was measured by PerkinElmer Envision 2104 plate reader and the data was analyzed.
? tested samples ? Compounds of the examples.
? data analysis ? Luminescence value of DMSO solvent control (Vvehicle control, which is the mean luminescence value from DMSO solvent control group)
Tested luminescence value (Vsample, which is the luminescence value from given concentration of compounds group) Inhibition rate (%)=(1−Vsample/Vvehicle control)×100
? data processing ? IC50 of compounds was calculated by using XLfit program in Excel.

| IC50 | SMILES |
| --- | --- |
| 103 nM | Cc1cc(Nc2ncc(Cl)c(Nc3cn(C)nc3S(=O)(=O)C(C)C)n2)c(OC2CC2)cc1C1CCCCN1C (stereo not shown) [Final product 102] |
| 70 nM | Cc1cc(Nc2ncc(Cl)c(Nc3cn(C)nc3S(=O)(=O)CC(C)C)n2)c(OC2CC2)cc1C1CCN(C)C(=O)C1 (stereo not shown) [Final product 104] |
| 63 nM | Cc1cc(Nc2ncc(Cl)c(Nc3cn(C)nc3S(=O)(=O)C(C)C)n2)c(OC2CC2)cc1C1CCN2CCCC2C1 (stereo not shown) [Final product 105] |
| 34 nM | Cc1cc(Nc2ncc(Cl)c(Nc3cn(C)nc3S(=O)(=O)C(C)C)n2)c(OC2CC2)cc1C1CCCN(C)CC1 (stereo not shown) [Final product 106] |
| 109 nM | Cc1cc(Nc2ncc(Cl)c(Nc3cn(C)nc3S(=O)(=O)C(C)C)n2)c(OC2CC2)cc1C1CC2CN(C)CC(C1)O2 (stereo not shown) [Final product 109] |
| 97 nM | Cc1cc(Nc2ncc(Cl)c(Nc3cn(C)nc3S(=O)(=O)C(C)C)n2)c(OC2CC2)cc1C1CCS(=O)(=O)CC1 [Final product 110] |
| 211 nM | CC(C)S(=O)(=O)c1nn(C)cc1Nc1nc(Nc2cc3c(cc2OC2CC2)CN(C)CC3)ncc1Cl [Final product 112] |
| 34 nM | CCOc1cc(C2CCN(CC)CC2)c(C)cc1Nc1ncc(Cl)c(Nc2cn(C)nc2S(=O)(=O)C(C)C)n1 [Final product 116] |
| 158 nM | CCN1CCC(c2cc(OC3CC3)c(Nc3ncc(Cl)c(Nc4cn(C)nc4S(=O)(=O)CC(C)C)n3)cc2C)CC1 [Final product 117] |
| 193 nM | CCN1CCCC(c2cc(OC(C)C)c(Nc3ncc(Cl)c(Nc4cn(C)nc4S(=O)(=O)C(C)C)n3)cc2C)C1 (stereo not shown) [Final product 119] |
| 93 nM | CCN1CCCC(c2cc(OC3CC3)c(Nc3ncc(Cl)c(Nc4cn(C)nc4S(=O)(=O)C(C)C)n3)cc2C)C1 (stereo not shown) [Final product 120] |
| 168 nM | CCN1CCCC(c2cc(OC3CC3)c(Nc3ncc(Cl)c(Nc4cn(C)nc4S(=O)(=O)CC(C)C)n3)cc2C)C1 (stereo not shown) [Final product 121] |
| 79 nM | CCN1CCC(c2cc(OC3CCC3)c(Nc3ncc(Cl)c(Nc4cn(C)nc4S(=O)(=O)C(C)C)n3)cc2C)CC1 [Final product 122] |
| 86 nM | COc1cc(C2CCN(C(C)C)CC2)c(C)cc1Nc1ncc(Cl)c(Nc2cn(C)nc2S(=O)(=O)C(C)C)n1 [Final product 124] |
| 47 nM | CCOc1cc(C2CCN(C(C)C)CC2)c(C)cc1Nc1ncc(Cl)c(Nc2cn(C)nc2S(=O)(=O)C(C)C)n1 [Final product 125] |
| 128 nM | Cc1cc(Nc2ncc(Cl)c(Nc3cn(C)nc3S(=O)(=O)C(C)C)n2)c(OC(C)C)cc1C1CCCN(C(C)C)C1 (stereo not shown) [Final product 128] |
| 32 nM | Cc1cc(Nc2ncc(Cl)c(Nc3cn(C)nc3S(=O)(=O)C(C)C)n2)c(OC2CC2)cc1C1CCCN(C(C)C)C1 (stereo not shown) [Final product 129] |
| 28 nM | Cc1cc(Nc2ncc(Cl)c(Nc3cn(C)nc3S(=O)(=O)CC(C)C)n2)c(OC2CC2)cc1C1CCCN(C(C)C)C1 (stereo not shown) [Final product 130] |

| IC50 | SMILES |
| --- | --- |
| 52 nM | Cc1cc(Nc2ncc(Cl)c(Nc3cn(C)nc3S(=O)(=O)C(C)C)n2)c(OC2CCC2)cc1C1CCN(C(C)C)CC1 [Final product 131] |
| 207 nM | Cc1cc(Nc2ncc(Cl)c(Nc3cn(C)nc3S(=O)(=O)C(C)C)n2)c(OC(C)C)cc1C1CN(C(C)C)C1 [Final product 132] |
| 134 nM | Cc1cc(Nc2ncc(Cl)c(Nc3cn(C)nc3S(=O)(=O)C(C)C)n2)c(OC(C)C)cc1C1CN(CCO)C1 [Final product 134] |
| 112 nM | Cc1cc(Nc2ncc(Cl)c(Nc3cn(C)nc3S(=O)(=O)C(C)C)n2)c(OC(C)C)cc1C1CCN(CCO)CC1 [Final product 136] |
| 90 nM | Cc1cc(Nc2ncc(Cl)c(Nc3cn(C)nc3S(=O)(=O)C(C)C)n2)c(OC2CC2)cc1C1CCCN(CCO)C1 (stereo not shown) [Final product 139] |
| 105 nM | Cc1cc(Nc2ncc(Cl)c(Nc3cn(C)nc3S(=O)(=O)CC(C)C)n2)c(OC2CC2)cc1C1CCCN(CCO)C1 (stereo not shown) [Final product 140] |
| 147 nM | Cc1cc(Nc2ncc(Cl)c(Nc3cn(C)nc3S(=O)(=O)C(C)C)n2)c(OC(C)C)cc1C1CCCN(CCO)C1 (stereo not shown) [Final product 141] |
| 140 nM | COCCN1CCC(c2cc(OC(C)C)c(Nc3ncc(Cl)c(Nc4cn(C)nc4S(=O)(=O)C(C)C)n3)cc2C)CC1 [Final product 142, 5-chloro-N^2-(2-isopropoxy-4-(1-(2-methoxyethyl)piperidin-4-yl)-5-methyl-phenyl)-N^4-(3-(isopropylsulfonyl)-1-methyl-1H-pyrazol-4)-pyrimidin-2,4-diamine] |
| 32 nM | CCOc1cc(C2CCN(CCOC)CC2)c(C)cc1Nc1ncc(Cl)c(Nc2cn(C)nc2S(=O)(=O)C(C)C)n1 [Final product 143, 5-chloro-N^2-(2-ethoxy-4-(1-(2-methoxyethyl)piperidin-4-yl)-5-methyl-phenyl)-N^4-(3-(isopropylsulfonyl)-1-methyl-1H-pyrazol-4)-pyrimidin-2,4-diamine] |
| 48 nM | COCCN1CCC(c2cc(OC3CCC3)c(Nc3ncc(Cl)c(Nc4cn(C)nc4S(=O)(=O)C(C)C)n3)cc2C)CC1 [Final product 144, 5-chloro-N^2-(2-cyclobutyloxy-4-(1-(2-methoxyethyl)piperidin-4-yl)-5-methyl-phenyl)-N^4-(3-(isopropylsulfonyl)-1-methyl-1H-pyrazol-4)-pyrimidin-2,4-diamine] |
| 54 nM | Cc1cc(Nc2ncc(Cl)c(Nc3cn(C)nc3S(=O)(=O)C(C)C)n2)c(OC2CC2)cc1C1CCN(CCF)CC1 [Final product 145, 5-chloro-N^2-[2-cyclopropoxy-4-(1-(2-fluoroethyl)piperidin-4-yl)-5-methylphenyl]-N^4-[1-methyl-3-(isopropylsulfonyl)-1H-pyrazol-4-yl]-pyrimidin-2,4-diamine] |
| 41 nM | Cc1cc(Nc2ncc(Cl)c(Nc3cn(C)nc3S(=O)(=O)C(C)C)n2)c(OC2CC2)cc1C1CCN(C(C)(C)CO)CC1 [Final product 147, 2-(4-(4-(5-chloro-4-(3-(isopropylsulfonyl)-1-methyl-1H-pyrazol-4-amino)pyrimidin-2-amino)-5-cyclopropoxy-2-methylphenyl)piperidin-1-yl)-2-methyl-1-propanol] |
| 44 nM | Cc1cc(Nc2ncc(Cl)c(Nc3cn(C)nc3S(=O)(=O)C(C)C)n2)c(OC2CC2)cc1C1CCCN(C(C)(C)CO)C1 (stereo not shown) [Final product 148] |
| 57 nM | Cc1cc(Nc2ncc(Cl)c(Nc3cn(C)nc3S(=O)(=O)CC(C)C)n2)c(OC2CC2)cc1C1CCN(C(C)(C)CO)CC1 [Final product 149] |
| 43 nM | CCOc1cc(C2CCN(C(C)(C)CO)CC2)c(C)cc1Nc1ncc(Cl)c(Nc2cn(C)nc2S(=O)(=O)C(C)C)n1 [Final product 150] |
| 70 nM | CCOc1cc(C2CCCN(C(C)(C)CO)C2)c(C)cc1Nc1ncc(Cl)c(Nc2cn(C)nc2S(=O)(=O)C(C)C)n1 (stereo not shown) [Final product 151] |
| 60 nM | Cc1cc(Nc2ncc(Cl)c(Nc3cn(C)nc3S(=O)(=O)C(C)C)n2)c(OC2CCC2)cc1C1CCN(C(C)(C)CO)CC1 [Final product 153] |
| 128 nM | Cc1cc(Nc2ncc(Cl)c(Nc3cn(C)nc3S(=O)(=O)C(C)C)n2)c(OC2CCC2)cc1C1CCCN(C(C)(C)CO)C1 (stereo not shown) [Final product 154] |

| SMILES | IC50 |
| --- | --- |
| Cc1cc(Nc2ncc(Cl)c(Nc3cn(C)nc3S(=O)(=O)C(C)C)n2)c(OC2CC2)cc1C1CC2COCC(C1)N2 (stereo not shown) [Final product 108] | 33 nM |
